From article PMC3731299, “Isoniazid Inhibits the Heme-Based Reactivity of Mycobacterium tuberculosis Truncated Hemoglobin N” (PLoS ONE, 2013)
Where two headings read alike, the source gives them in different places. Marks after values point to notes of the source that are not given here.

What was measured:
Mt-trHbN(II) = target: T1, Mt-trHbN(II) (Mycobacterium tuberculosis, UniProt P9WN25); assay type: binding
T1 construct: made in house

Sperm whale Mb(II) = test system: Sperm whale Mb(II); parameters: method as in PMID 3733708; details: pH 7.0, 20.0°C; cited from earlier work
Mt-trHbN(III) [1] = target: T2, Mt-trHbN(III) (Mycobacterium tuberculosis, UniProt P9WN25); assay type: biochemical
T2 construct: made in house

Mt-trHbN(III) [2] = target: T2, Mt-trHbN(III); experiment: biochemical; assay type: binding; details: pH 7
Sperm whale Mb(III) = details: pH 7.0, 25.0°C, cited from earlier work
Mt-trHbN(III) [3] = target: T2, Mt-trHbN(III); experiment: Peroxynitrite isomerization by Mt-trHbN(III) in the absence and presence of isoniazid; assay type: biochemical; details: [azide] >10×H
Method: Rapid-mixing experiments were performed using either the SX18.MV stopped-flow apparatus (Applied Photophysics, Salisbury, United Kingdom) or the SFM-20 stopped-flow apparatus (Bio-Logic SAS, Claix, France); the dead time was 1.0 ms.
Kinetics of peroxynitrite isomerization by Mt-trHbN(III) in the absence and presence of isoniazid was recorded spectrophotometrically at 302 nm (ε302 nm = 1.705×10^3 M^−1 cm^−1) [60]–[67] in the absence and presence of Mt-trHbN(III) (final concentration 2.5×10^−6 – 1.0×10^−5 M) and isoniazid (final concentration 3.0×10^−5 – 4.0×10^−4 M) by rapid mixing the Mt-trHbN(III) or buffer solution with the peroxynitrite solution (final concentration 2.5×10^−4 M).
Kinetics of peroxynitrite isomerization by Mt-trHbN(III) in the absence and presence of isoniazid was analyzed in the framework of the minimum reaction mechanism depicted by Scheme D [60]–[67]: [drawing 11] (D)
Values of the pseudo-first-order rate constant for Mt-trHbN(III)-mediated peroxynitrite isomerization (i.e., l ^obs) were determined in the absence and presence of isoniazid according to Equation 8 [60]–[67]: [drawing 12] (8)
Values of the second-order rate constant for Mt-trHbN(III)-mediated peroxynitrite isomerization (i.e., l on) and of the first-order rate constant for peroxynitrite isomerization in the absence of Mt-trHbN(III) (i.e., l 0) were determined from the linear dependence of l ^obs values on the Mt-trHbN(III) concentration according to Equation 9 [60]–[67]: [drawing 13] (9)
The value of K for isoniazid binding to Mt-trHbN(III) was determined from the dependence of l on the drug concentration (i.e., 3.0×10^−5 M ≤ [isoniazid] ≤4.0×10^−4 M) according to Equation 11 [60]–[67]: [drawing 15] (11) where l on ^app is the value of l on in the presence of isoniazid.

[4] = absence of Mt-trHbN(III), isoniazid and azide

[C-]#[O+] [CO]
amplitude (1 – a) of the CO binding process (slow phase) (Mt-trHbN(II)): 0.62
amplitude a of the CO binding process (Mt-trHbN(II)): 1
amplitude a of the CO binding process (isoniazid-free fraction, fast phase) (Mt-trHbN(II)): 0.38
f obs, pseudo-first order rate constant for CO binding (Mt-trHbN(II)): 170 s⁻¹
f obs, pseudo-first order rate constant for CO binding (fast phase) (Mt-trHbN(II)): 170 s⁻¹
f obsi, pseudo-first order rate constant for CO binding in the presence of isoniazid (slow phase) (Mt-trHbN(II)): 1.5 s⁻¹
second-order association rate constant f on for CO binding to Mt-trHbN(II) (Mt-trHbN(II); pH 7): f on = (3.8±0.5)×10^6 M^−1 s^−1
f off for CO binding to sperm whale Mb(II) (Sperm whale Mb(II)): f off = 1.9×10^−2 s^−1h
f on for CO binding to sperm whale Mb(II) (Sperm whale Mb(II)): f on = 5.1×10^5 M^−1 s^−1 ^h

[N-]=[N+]=[N-] [azide]
average yield of NO2 – (Mt-trHbN(III) [1]): 26%
average yield of NO3 – (Mt-trHbN(III) [1]): 74%
NO2 – (Mt-trHbN(III) [1]; pH 7): 26±4%
NO3 – (Mt-trHbN(III) [1]; pH 7): 73±7%
NO3 – + NO2 – (Mt-trHbN(III) [1]; pH 7): 99%
first-order dissociation rate constant h off (Mt-trHbN(III) [2]): h off = (7.1±0.8)×10^−1 s^−1
second-order association rate constant h on (Mt-trHbN(III) [2]): h on = (9.6±1.1)×10^3 M^−1 s^−1
Kd (Mt-trHbN(III) [2]; read-out: H calculated from kinetic parameters (h off/h on)): 74 µM
Kd (Mt-trHbN(III) [2]; read-out: dissociation equilibrium constant H for azide binding to Mt-trHbN(III)): 73 µM
h off for azide binding to sperm whale Mb(III) (Sperm whale Mb(III)): h off = 3.0×10^−1 s^−1 ^d
h on for azide binding to sperm whale Mb(III) (Sperm whale Mb(III)): h on = 4.4×10^3 M^−1 s^−1 ^d
Kd (Sperm whale Mb(III); read-out: H for azide binding to sperm whale Mb(III)): 50 µM
Mt-trHbN(III) catalysis of peroxynitrite isomerization (Mt-trHbN(III) [3]): does not catalyze the isomerization of peroxynitrite
average yield of NO2 – [4]: 29%
average yield of NO3 – [4]: 72%
NO2 – (pH 7): 27±6%
NO3 – (pH 7): 74±5%
NO3 – + NO2 – (pH 7): 101%
